Data taken from publication PMC12564265, “Navigating the Deep Eutectic Solvent Landscape: Experimental and Machine Learning Solubility Explorations of Syringic, p-Coumaric, and Caffeic Acids” (International Journal of Molecular Sciences, 2025).
“And” between values parts separate entries of the source, which are not always exact repeats. Equal values may be shown once.

Experiment: Shake-flask solubility with spectrophotometric measurement in aqueous DES mixtures
Format: physicochemical
Protocol: In order to determine the solubility of the three studied phenolic acids in deep eutectic solvents, a very well-established shake-flask method coupled with spectrophotometric measurements was utilized. The initial procedure involved the preparation of various DESs, which was conducted by mixing their HBA and HBD counterparts in a glass vessel and heating the composition until the formation of a transparent, uniform liquid. […] For additional measurements, the DESs were mixed with water in varying proportions, creating aqueous DES systems. Saturated solutions of CAF, SYR, and COU were obtained by adding excess amounts of these compounds to test tubes containing either a neat deep eutectic solvent or its aqueous solution. Such samples were placed in the Orbital Shaker Incubator ES-20/60 from Biosan (Riga, Latvia) and heated for 24 h at 25 °C, 30 °C, 35 °C, and 40 °C (±0.1 °C) with simultaneous mixing at 60 rpm. Before measurements, the samples were filtered using a PTFE syringe filter from Qpore (Dallas, TX, USA) with a 0.22 μm pore size. In order to avoid possible precipitation of the saturated solutions at decreased temperatures, the test tubes, syringes, pipette tips, and filters were kept at a temperature identical to that of the samples. The spectrophotometric measurements required the preparation of calibration curves for the three APIs. This involved the preparation of a stock solution of each compound in methanol, which was later successfully diluted, and the obtained solutions of varying concentrations were measured using an A360 spectrophotometer from AOE Instruments (Shanghai, China). The wavelength range was set to 200-500 nm, and the resolution was 1 nm. The analytical wavelengths were determined to be 324 nm for caffeic acid, 273 nm for syringic acid, and 308 nm for p-coumaric acid. The final regression equations, obtained after averaging three distinct sets of measurements, are collected in Table 2 together with determination coefficients and limits of detection (LOD) and quantification (LOQ) for the calibration curves. The measurements of the samples were conducted with the same spectrophotometer and identical settings. Methanol was used for the dilution of the samples so that they could remain within the linearity range of the method. Complete spectra of the samples were recorded, but for the solubility determination, the absorbance values at a specific analytical wavelength were considered. These values were combined with the corresponding regression equations of the calibration curves and served for the calculation of the concentration of the three phenolic acids in the studied samples. The densities of such samples were also measured, and for this task 1 mL of each sample was weighed to a precision of 0.1 mg using an AS 110 R2.PLUS analytical balance from […] (Radom, Poland). The obtained densities enabled the calculation of mole fractions of CAF, SYR, and COU dissolved in the studied DESs. For each considered system, three distinct measurements were conducted, and the results were averaged.

SMILES: O=C(O)C=Cc1ccc(O)c(O)c1 [caffeic acid, 3,4-dihydroxycinnamic acid]
- Mole fraction solubility (Bet – TEG 1:2 + water, x*DES 0.1, 25°C): 0.0077±0.0001 mole fraction
- Mole fraction solubility (Bet – TEG 1:2 + water, x*DES 0.1, 30°C): 0.0087±0.0001 mole fraction
- Mole fraction solubility (Bet – TEG 1:2 + water, x*DES 0.1, 35°C): 0.0101±0.0001 mole fraction
- Mole fraction solubility (Bet – TEG 1:2 + water, x*DES 0.1, 40°C): 0.0121±0.0001 mole fraction
- Mole fraction solubility (Bet – TEG 1:2 + water, x*DES 0.2, 25°C): 0.0155±0.0001 mole fraction
- Mole fraction solubility (Bet – TEG 1:2 + water, x*DES 0.2, 30°C): 0.0195±0.0002 mole fraction
- Mole fraction solubility (Bet – TEG 1:2 + water, x*DES 0.2, 35°C): 0.0203±0.0002 mole fraction
- Mole fraction solubility (Bet – TEG 1:2 + water, x*DES 0.2, 40°C): 0.0243±0.0003 mole fraction
- Mole fraction solubility (Bet – TEG 1:2 + water, x*DES 0.3, 25°C): 0.0243±0.0002 mole fraction
- Mole fraction solubility (Bet – TEG 1:2 + water, x*DES 0.3, 30°C): 0.0271±0.0002 mole fraction
- Mole fraction solubility (Bet – TEG 1:2 + water, x*DES 0.3, 35°C): 0.0318±0.0002 mole fraction
- Mole fraction solubility (Bet – TEG 1:2 + water, x*DES 0.3, 40°C): 0.0377±0.0003 mole fraction
- Mole fraction solubility (Bet – TEG 1:2 + water, x*DES 0.4, 25°C): 0.0343±0.0002 mole fraction
- Mole fraction solubility (Bet – TEG 1:2 + water, x*DES 0.4, 30°C): 0.0379±0.0001 mole fraction
- Mole fraction solubility (Bet – TEG 1:2 + water, x*DES 0.4, 35°C): 0.0450±0.0002 mole fraction
- Mole fraction solubility (Bet – TEG 1:2 + water, x*DES 0.4, 40°C): 0.0538±0.0003 mole fraction
- Mole fraction solubility (Bet – TEG 1:2 + water, x*DES 0.5, 25°C): 0.0432±0.0002 mole fraction
- Mole fraction solubility (Bet – TEG 1:2 + water, x*DES 0.5, 30°C): 0.0476±0.0003 mole fraction
- Mole fraction solubility (Bet – TEG 1:2 + water, x*DES 0.5, 35°C): 0.0565±0.0003 mole fraction
- Mole fraction solubility (Bet – TEG 1:2 + water, x*DES 0.5, 40°C): 0.0690±0.0009 mole fraction
- Mole fraction solubility (Bet – TEG 1:2 + water, x*DES 0.6, 25°C): 0.0543±0.0003 mole fraction
- Mole fraction solubility (Bet – TEG 1:2 + water, x*DES 0.6, 30°C): 0.0601±0.0005 mole fraction
- Mole fraction solubility (Bet – TEG 1:2 + water, x*DES 0.6, 35°C): 0.0703±0.0005 mole fraction
- Mole fraction solubility (Bet – TEG 1:2 + water, x*DES 0.6, 40°C): 0.0870±0.0009 mole fraction
- Mole fraction solubility (Bet – TEG 1:2 + water, x*DES 0.7, 25°C): 0.0659±0.0007 mole fraction
- Mole fraction solubility (Bet – TEG 1:2 + water, x*DES 0.7, 30°C): 0.0737±0.0006 mole fraction
- Mole fraction solubility (Bet – TEG 1:2 + water, x*DES 0.7, 35°C): 0.0862±0.0007 mole fraction
- Mole fraction solubility (Bet – TEG 1:2 + water, x*DES 0.7, 40°C): 0.1046±0.0008 mole fraction
- Mole fraction solubility (Bet – TEG 1:2 + water, x*DES 0.8, 25°C): 0.0797±0.0006 mole fraction
- Mole fraction solubility (Bet – TEG 1:2 + water, x*DES 0.8, 30°C): 0.0901±0.0008 mole fraction
- Mole fraction solubility (Bet – TEG 1:2 + water, x*DES 0.8, 35°C): 0.1042±0.0013 mole fraction
- Mole fraction solubility (Bet – TEG 1:2 + water, x*DES 0.8, 40°C): 0.1253±0.0010 mole fraction
- Mole fraction solubility (Bet – TEG 1:2 + water, x*DES 0.9, 25°C): 0.0823 mole fraction and 0.0823±0.0013 mole fraction
- Mole fraction solubility (Bet – TEG 1:2 + water, x*DES 0.9, 30°C): 0.0941±0.0005 mole fraction
- Mole fraction solubility (Bet – TEG 1:2 + water, x*DES 0.9, 35°C): 0.1123±0.0012 mole fraction
- Mole fraction solubility (Bet – TEG 1:2 + water, x*DES 0.9, 40°C): 0.1364±0.0011 mole fraction
- Mole fraction solubility (Bet – TEG 1:2, x*DES 1.0 (neat DES), 25°C): 0.0755±0.0010 mole fraction
- Mole fraction solubility (Bet – TEG 1:2, x*DES 1.0 (neat DES), 30°C): 0.0844±0.0011 mole fraction
- Mole fraction solubility (Bet – TEG 1:2, x*DES 1.0 (neat DES), 35°C): 0.0989±0.0012 mole fraction
- Mole fraction solubility (Bet – TEG 1:2, x*DES 1.0 (neat DES), 40°C): 0.1215±0.0012 mole fraction
- Increase in the solubility compared to the neat DES (Bet-TEG 1:2, x*DES = 0.9 (xwater = 0.1), 25 °C): 9%
- Mole fraction solubility (ChCl – TEG 1:2 + water, x*DES 0.1, 25°C): 0.0098±0.0001 mole fraction
- Mole fraction solubility (ChCl – TEG 1:2 + water, x*DES 0.1, 30°C): 0.0125±0.0001 mole fraction
- Mole fraction solubility (ChCl – TEG 1:2 + water, x*DES 0.1, 35°C): 0.0162±0.0001 mole fraction
- Mole fraction solubility (ChCl – TEG 1:2 + water, x*DES 0.1, 40°C): 0.0211±0.0001 mole fraction
- Mole fraction solubility (ChCl – TEG 1:2 + water, x*DES 0.2, 25°C): 0.0184±0.0002 mole fraction
- Mole fraction solubility (ChCl – TEG 1:2 + water, x*DES 0.2, 30°C): 0.0233±0.0002 mole fraction
- Mole fraction solubility (ChCl – TEG 1:2 + water, x*DES 0.2, 35°C): 0.0321±0.0001 mole fraction
- Mole fraction solubility (ChCl – TEG 1:2 + water, x*DES 0.2, 40°C): 0.0432±0.0002 mole fraction
- Mole fraction solubility (ChCl – TEG 1:2 + water, x*DES 0.3, 25°C): 0.0292±0.0002 mole fraction
- Mole fraction solubility (ChCl – TEG 1:2 + water, x*DES 0.3, 30°C): 0.0366±0.0003 mole fraction
